Data: patent publication US20250353820A1, “ANTIVIRAL PYRAZOLOPYRIDINONE COMPOUNDS” (Novartis AG, priority 2019, published 2025)
Where a name gives a salt, the structure may show the parent alone.

Target: human HSV DNA polymerase UL30 (Human herpesvirus 1 (strain 17) (HHV-1) (Human herpes simplex virus 1), UniProt P04293)
Assay: biochemical
Conditions: 625 pM HSV polymerase, 20 minutes at room temperature; read-out: HSV-polymerase Biochemical IC50

| SMILES | IC50 [nM] |
| --- | --- |
| CN(C)CCOCC(C)(C)S(=O)(=O)C1(CN2CCc3c(C(=O)NCc4ccc(C#N)cc4)nn(C)c3C2=O)CC1 [Example 104, N-(4-Cyanobenzyl)-6-((1-((1-(2-(dimethylamino)ethoxy)-2-methylpropan-2-yl)sulfonyl)cyclopropyl)methyl)-1-methyl-7-oxo-4,5,6,7-tetrahydro-1H-pyrazolo[3,4-c]pyridine-3-carboxamide] | 108 |
| Cn1nc(C(=O)NCc2ccc(C#N)c(F)c2)c2c1C(=O)N(CC1(S(C)(=O)=O)CC1)CC2 [Example 23, N-(4-Cyano-3-fluorobenzyl)-1-methyl-6-((1-(methylsulfonyl)cyclopropyl)methyl)-7-oxo-4,5,6,7-tetrahydro-1H-pyrazolo[3,4-c]pyridine-3-carboxamide] | 345 |
| N#Cc1ccc(CNC(=O)c2nn(C3CC3)c3c2CCN(CC2(S(=O)(=O)C4CC4)CC2)C3=O)cc1 [Example 43, N-(4-Cyanobenzyl)-1-cyclopropyl-6-((1-(cyclopropylsulfonyl)cyclopropyl)methyl)-7-oxo-4,5,6,7-tetrahydro-1H-pyrazolo[3,4-c]pyridine-3-carboxamide] | 101 |
| COc1cccc(NS(=O)(=O)C2(CN3CCc4c(C(=O)NCc5ccc(C#N)cc5)nn(C)c4C3=O)CC2)n1 [Example 163] | 36 |
| Cn1nc(C(=O)NCc2ccc(Cl)cc2)c2c1C(=O)N(CC1(S(=O)(=O)C(C)(C)[C@@H](O)CO)CC1)CC2 [Example 190, (S)—N-(4-Chlorobenzyl)-6-((1-((3,4-dihydroxy-2-methylbutan-2-yl)sulfonyl)cyclopropyl)methyl)-1-methyl-7-oxo-4,5,6,7-tetrahydro-1H-pyrazolo[3,4-c]pyridine-3-carboxamide] | 20 |
| CC1(S(=O)(=O)C2(CN3CCc4c(C(=O)NCc5ccc(C#N)cc5)nn(CCO)c4C3=O)CC2)CC1 [Example 217] | 26 |
| Cn1nc(C(=O)NCc2ccc(C#N)cc2)c2c1C(=O)N(CC1(S(=O)(=O)CC(C)(C)O)CC1)CC2 [Example 118, N-(4-Cyanobenzyl)-6-((1-((2-hydroxy-2-methylpropyl)sulfonyl)cyclopropyl)methyl)-1-methyl-7-oxo-4,5,6,7-tetrahydro-1H-pyrazolo[3,4-c]pyridine-3-carboxamide] | 412 |
| Cn1nc(C(=O)NCc2ccc(C#N)cc2)c2c1C(=O)N(CC1(S(=O)(=O)C(C)(C)CN3CCOCC3)CC1)CC2 [Example 61, N-(4-Cyanobenzyl)-1-methyl-6-((1-((2-methyl-1-morpholinopropan-2-yl)sulfonyl)cyclopropyl)methyl)-7-oxo-4,5,6,7-tetrahydro-1H-pyrazolo[3,4-c]pyridine-3-carboxamide] | 75 |
| Cn1nc(C(=O)NCc2ccc(C#N)cc2)c2c1C(=O)N(CC1(S(=O)(=O)N3CCC(N)CC3)CC1)CC2 [Example 138, 6-((1-((4-Aminopiperidin-1-yl)sulfonyl)cyclopropyl)methyl)-N-(4-cyanobenzyl)-1-methyl-7-oxo-4,5,6,7-tetrahydro-1H-pyrazolo[3,4-c]pyridine-3-carboxamide] | 326 |
| CN(Cc1ccc(C#N)cc1)C(=O)c1nn(C)c2c1CCN(CC1(S(=O)(=O)C3CC3)CC1)C2=O [Example 6, N-(4-Cyanobenzyl)-6-((1-(cyclopropylsulfonyl)cyclopropyl)methyl)-N,1-dimethyl-7-oxo-4,5,6,7-tetrahydro-1H-pyrazolo[3,4-c]pyridine-3-carboxamide] | 959 |
| Cn1nc(C(=O)NCc2ccc(C#N)cc2)c2c1C(=O)N(CC1(S(=O)(=O)C(C)(C)CN)CC1)CC2 [Example 70, 6-((1-((1-Amino-2-methylpropan-2-yl)sulfonyl)cyclopropyl)methyl)-N-(4-cyanobenzyl)-1-methyl-7-oxo-4,5,6,7-tetrahydro-1H-pyrazolo[3,4-c]pyridine-3-carboxamide] | 37 |
| COCC(C)(COC)S(=O)(=O)C1(CN2CCc3c(C(=O)NCc4ccc(C#N)cc4)nn(C)c3C2=O)CC1 [Example 179, N-(4-Cyanobenzyl)-6-((1-((1,3-dimethoxy-2-methylpropan-2-yl)sulfonyl)cyclopropyl)methyl)-1-methyl-7-oxo-4,5,6,7-tetrahydro-1H-pyrazolo[3,4-c]pyridine-3-carboxamide] | 61 |
| Cn1nc(C(=O)NCc2ccc(C#N)cc2)c2c1C(=O)N(CC1(S(=O)(=O)C(C)(C)[C@@H](O)CO)CC1)CC2 [Example 192, (S)—N-(4-cyanobenzyl)-6-((1-((3,4-dihydroxy-2-methylbutan-2-yl)sulfonyl)cyclopropyl)methyl)-1-methyl-7-oxo-4,5,6,7-tetrahydro-1H-pyrazolo[3,4-c]pyridine-3-carboxamide] | 30 |
| Cn1nc(C(=O)NCc2ccc(Cl)nc2)c2c1C(=O)N(CC1(S(=O)(=O)C(C)(C)CO)CC1)CC2 [Example 51, N-((6-Chloropyridin-3-yl)methyl)-6-((1-((1-hydroxy-2-methylpropan-2-yl)sulfonyl)cyclopropyl)methyl)-1-methyl-7-oxo-4,5,6,7-tetrahydro-1H-pyrazolo[3,4-c]pyridine-3-carboxamide] | 89 |
| COc1cc(CNC(=O)c2nn(C)c3c2CCN(CC2(S(=O)(=O)C4CC4)CC2)C3=O)ccc1C#N [Example 15, N-(4-Cyano-3-methoxybenzyl)-6-((1-(cyclopropylsulfonyl)cyclopropyl)methyl)-1-methyl-7-oxo-4,5,6,7-tetrahydro-1H-pyrazolo[3,4-c]pyridine-3-carboxamide] | 385 |
| Cn1nc(C(=O)NCc2ccc(Cl)cc2)c2c1C(=O)N(CC1(S(N)(=O)=O)CC1)CC2 [Example 121, N-(4-Chlorobenzyl)-1-methyl-7-oxo-6-((1-sulfamoylcyclopropyl)methyl)-4,5,6,7-tetrahydro-1H-pyrazolo[3,4-c]pyridine-3-carboxamide] | 671 |
| CN(CCO)S(=O)(=O)C1(CN2CCc3c(C(=O)NCc4ccc(C#N)cc4)nn(C)c3C2=O)CC1 [Example 146, N-(4-Cyanobenzyl)-6-((1-(N-(2-hydroxyethyl)-N-methylsulfamoyl)cyclopropyl)methyl)-1-methyl-7-oxo-4,5,6,7-tetrahydro-1H-pyrazolo[3,4-c]pyridine-3-carboxamide] | 74 |
| Cn1nc(C(=O)NCc2ccc(C#N)cc2)c2c1C(=O)N(CC1(S(=O)(=O)C3CCOCC3)CC1)CC2 [Example 169] | 238 |
| CC1(S(=O)(=O)C2(CN3CCc4c(C(=O)NCc5ccc(Cl)cc5)nn(CCOCCO)c4C3=O)CC2)CC1 [Example 222, N-(4-Chlorobenzyl)-1-(2-(2-hydroxyethoxy)ethyl)-6-((1-((1-methylcyclopropyl)sulfonyl)cyclopropyl)methyl)-7-oxo-4,5,6,7-tetrahydro-1H-pyrazolo[3,4-c]pyridine-3-carboxamide] | 43 |
| CC(C)(O)Cn1nc(C(=O)NCc2ccc(C#N)cc2)c2c1C(=O)N(CC1(S(=O)(=O)C3(CO)CC3)CC1)CC2 [Example 234] | 19 |
| CCC(=O)Cn1nc(C(=O)NCc2ccc(C#N)cc2)c2c1C(=O)N(CC1(S(=O)(=O)C3CC3)CC1)CC2 [Example 227, N-(4-cyanobenzyl)-6-((1-(cyclopropylsulfonyl)cyclopropyl)methyl)-7-oxo-1-(2-oxobutyl)-4,5,6,7-tetrahydro-1H-pyrazolo[3,4-c]pyridine-3-carboxamide] | 31 |
| C[C@H](N)C(=O)NCC(C)(C)S(=O)(=O)C1(CN2CCc3c(C(=O)NCc4ccc(C#N)cc4)nn(C)c3C2=O)CC1 [Example 76, (S)-6-((1-((1-(2-Aminopropanamido)-2-methylpropan-2-yl)sulfonyl)cyclopropyl)methyl)-N-(4-cyanobenzyl)-1-methyl-7-oxo-4,5,6,7-tetrahydro-1H-pyrazolo[3,4-c]pyridine-3-carboxamide] | 123 |
| Cn1nc(C(=O)NCc2ccc(Cl)cc2)c2c1C(=O)N(CC1(S(=O)(=O)NC(C)(C)CO)CC1)CC2 [Example 148, N-(4-Chlorobenzyl)-6-((1-(N-(1-hydroxy-2-methylpropan-2-yl)sulfamoyl)cyclopropyl)methyl)-1-methyl-7-oxo-4,5,6,7-tetrahydro-1H-pyrazolo[3,4-c]pyridine-3-carboxamide] | 155 |
| Cn1nc(C(=O)NCc2ccc(C#N)cc2)c2c1C(=O)N(CC1(S(=O)(=O)C3(CCO)CC3)CC1)CC2 [Example 117, N-(4-Cyanobenzyl)-6-((1-((1-(2-hydroxyethyl)cyclopropyl)sulfonyl)cyclopropyl)methyl)-1-methyl-7-oxo-4,5,6,7-tetrahydro-1H-pyrazolo[3,4-c]pyridine-3-carboxamide] | 59 |
| Cn1nc(C(=O)NCc2ccc(Cl)cc2)c2c1C(=O)N(CC1(S(=O)(=O)C(C)(C)[C@H](N)CO)CC1)CC2 [Example 214, (R)-6-((1-((3-Amino-4-hydroxy-2-methylbutan-2-yl)sulfonyl)cyclopropyl)methyl)-N-(4-chlorobenzyl)-1-methyl-7-oxo-4,5,6,7-tetrahydro-1H-pyrazolo[3,4-c]pyridine-3-carboxamide hydrochloride] | 32 |
| Cn1nc(-c2cn(Cc3ccc(C#N)cc3)nn2)c2c1C(=O)N(CC1(S(=O)(=O)C3CC3)CC1)CC2 [Example 35, 4-((4-(6-((1-(Cyclopropylsulfonyl)cyclopropyl)methyl)-1-methyl-7-oxo-4,5,6,7-tetrahydro-1H-pyrazolo[3,4-c]pyridin-3-yl)-1H-1,2,3-triazol-1-yl)methyl)benzonitrile] | 141 |
| Cn1nc(C(=O)NCc2ccc(C#N)cc2)c2c1C(=O)N(CC1(S(=O)(=O)NC3COC3)CC1)CC2 [Example 132, N-(4-Cyanobenzyl)-1-methyl-6-((1-(N-(oxetan-3-yl)sulfamoyl)cyclopropyl)methyl)-7-oxo-4,5,6,7-tetrahydro-1H-pyrazolo[3,4-c]pyridine-3-carboxamide] | 451 |
| Cn1nc(C(=O)NCc2ccc(C#N)cc2)c2c1C(=O)N(CC1(S(=O)(=O)C(C)(C)CNCCO)CC1)CC2 [Example 69, N-(4-Cyanobenzyl)-6-((1-((1-((2-hydroxyethyl)amino)-2-methylpropan-2-yl)sulfonyl)cyclopropyl)methyl)-1-methyl-7-oxo-4,5,6,7-tetrahydro-1H-pyrazolo[3,4-c]pyridine-3-carboxamide] | 40 |
